Experimental data reported in ChEMBL document CHEMBL3994677, “Discovery of GSK2193874: An Orally Active, Potent, and Selective Blocker of Transient Receptor Potential Vanilloid 4” (ACS Med Chem Lett, 2017).
One block for each compound: values may come before it. Calls of active or inactive are those of the source. The calls are words filed in the database; no cut-off is given here.

Experiments:
[1] = molecular target: T1, Transient receptor potential cation channel subfamily V member 4 (Rattus norvegicus, UniProt Q9ERZ8); experiment: Antagonist activity at rat TRPV4 expressed in HEK293 cells assessed as inhibition of GSK634775A-induced calcium influx preincubated for 10 mins followed by GSK634775A addition by […] dye based FLIPR assay; assay type: cell-based
T1 sequence (Q9ERZ8 whole entry): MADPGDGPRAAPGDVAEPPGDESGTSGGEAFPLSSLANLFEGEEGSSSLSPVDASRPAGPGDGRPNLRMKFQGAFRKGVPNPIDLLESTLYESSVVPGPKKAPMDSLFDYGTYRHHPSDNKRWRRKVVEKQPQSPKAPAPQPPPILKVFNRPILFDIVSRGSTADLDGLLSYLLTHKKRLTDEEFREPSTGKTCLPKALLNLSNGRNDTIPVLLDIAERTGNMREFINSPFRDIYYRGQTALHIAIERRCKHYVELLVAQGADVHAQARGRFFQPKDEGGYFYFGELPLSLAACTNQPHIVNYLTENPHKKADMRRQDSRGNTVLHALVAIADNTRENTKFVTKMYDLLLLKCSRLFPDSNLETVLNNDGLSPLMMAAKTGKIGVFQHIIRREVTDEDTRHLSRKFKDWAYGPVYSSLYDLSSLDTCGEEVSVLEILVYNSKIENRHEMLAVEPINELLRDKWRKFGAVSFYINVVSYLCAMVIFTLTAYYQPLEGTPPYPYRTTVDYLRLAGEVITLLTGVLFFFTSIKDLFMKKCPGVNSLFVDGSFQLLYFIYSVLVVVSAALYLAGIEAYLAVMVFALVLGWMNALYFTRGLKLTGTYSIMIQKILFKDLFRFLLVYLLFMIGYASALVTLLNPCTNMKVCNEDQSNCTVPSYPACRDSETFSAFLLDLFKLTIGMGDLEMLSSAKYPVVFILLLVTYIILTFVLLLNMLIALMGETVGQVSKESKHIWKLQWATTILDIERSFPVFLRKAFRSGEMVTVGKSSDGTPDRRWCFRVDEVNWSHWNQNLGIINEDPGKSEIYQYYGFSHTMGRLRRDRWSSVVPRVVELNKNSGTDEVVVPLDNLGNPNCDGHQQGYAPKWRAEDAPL

[2] = molecular target: T2, Transient receptor potential cation channel subfamily V member 4 (Homo sapiens, UniProt Q9HBA0); experiment: Antagonist activity at human TRPV4 expressed in HEK293 cells assessed as inhibition of GSK634775A-induced calcium influx preincubated for 10 mins followed by GSK634775A addition by […] dye based FLIPR assay; assay type: cell-based
T2 sequence (Q9HBA0 whole entry): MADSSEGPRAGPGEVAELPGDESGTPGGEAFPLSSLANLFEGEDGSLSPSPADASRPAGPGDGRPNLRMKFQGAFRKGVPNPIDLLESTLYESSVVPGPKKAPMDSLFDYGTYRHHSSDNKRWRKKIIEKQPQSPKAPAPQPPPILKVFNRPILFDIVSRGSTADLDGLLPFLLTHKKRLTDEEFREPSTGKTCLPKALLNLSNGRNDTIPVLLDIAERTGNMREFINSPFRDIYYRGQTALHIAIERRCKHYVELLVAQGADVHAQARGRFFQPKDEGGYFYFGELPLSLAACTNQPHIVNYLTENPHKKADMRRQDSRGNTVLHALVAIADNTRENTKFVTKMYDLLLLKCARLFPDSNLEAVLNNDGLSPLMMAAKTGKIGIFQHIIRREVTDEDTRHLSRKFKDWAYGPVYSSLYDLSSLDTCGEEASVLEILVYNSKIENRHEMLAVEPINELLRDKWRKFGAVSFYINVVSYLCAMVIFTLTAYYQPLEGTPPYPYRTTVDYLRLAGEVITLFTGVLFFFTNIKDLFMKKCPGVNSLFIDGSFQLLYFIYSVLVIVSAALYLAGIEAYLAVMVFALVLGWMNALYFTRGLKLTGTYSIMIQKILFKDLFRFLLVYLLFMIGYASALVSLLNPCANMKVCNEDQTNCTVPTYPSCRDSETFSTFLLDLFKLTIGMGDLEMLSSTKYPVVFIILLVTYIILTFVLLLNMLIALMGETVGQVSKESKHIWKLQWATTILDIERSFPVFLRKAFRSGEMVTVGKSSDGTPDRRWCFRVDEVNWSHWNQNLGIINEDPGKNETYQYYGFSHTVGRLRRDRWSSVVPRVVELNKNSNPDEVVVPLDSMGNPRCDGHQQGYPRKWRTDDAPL

[3] = molecular target: T3, Voltage-dependent L-type calcium channel subunit alpha-1C (Cavia porcellus, UniProt O35505); experiment: Inhibition of Cav1.2 in guinea pig ventricular myocytes assessed as decrease in current amplitude at 2 Hz by patch clamp method; assay type: cell-based
T3 sequence (O35505 whole entry, the tested form may be a part): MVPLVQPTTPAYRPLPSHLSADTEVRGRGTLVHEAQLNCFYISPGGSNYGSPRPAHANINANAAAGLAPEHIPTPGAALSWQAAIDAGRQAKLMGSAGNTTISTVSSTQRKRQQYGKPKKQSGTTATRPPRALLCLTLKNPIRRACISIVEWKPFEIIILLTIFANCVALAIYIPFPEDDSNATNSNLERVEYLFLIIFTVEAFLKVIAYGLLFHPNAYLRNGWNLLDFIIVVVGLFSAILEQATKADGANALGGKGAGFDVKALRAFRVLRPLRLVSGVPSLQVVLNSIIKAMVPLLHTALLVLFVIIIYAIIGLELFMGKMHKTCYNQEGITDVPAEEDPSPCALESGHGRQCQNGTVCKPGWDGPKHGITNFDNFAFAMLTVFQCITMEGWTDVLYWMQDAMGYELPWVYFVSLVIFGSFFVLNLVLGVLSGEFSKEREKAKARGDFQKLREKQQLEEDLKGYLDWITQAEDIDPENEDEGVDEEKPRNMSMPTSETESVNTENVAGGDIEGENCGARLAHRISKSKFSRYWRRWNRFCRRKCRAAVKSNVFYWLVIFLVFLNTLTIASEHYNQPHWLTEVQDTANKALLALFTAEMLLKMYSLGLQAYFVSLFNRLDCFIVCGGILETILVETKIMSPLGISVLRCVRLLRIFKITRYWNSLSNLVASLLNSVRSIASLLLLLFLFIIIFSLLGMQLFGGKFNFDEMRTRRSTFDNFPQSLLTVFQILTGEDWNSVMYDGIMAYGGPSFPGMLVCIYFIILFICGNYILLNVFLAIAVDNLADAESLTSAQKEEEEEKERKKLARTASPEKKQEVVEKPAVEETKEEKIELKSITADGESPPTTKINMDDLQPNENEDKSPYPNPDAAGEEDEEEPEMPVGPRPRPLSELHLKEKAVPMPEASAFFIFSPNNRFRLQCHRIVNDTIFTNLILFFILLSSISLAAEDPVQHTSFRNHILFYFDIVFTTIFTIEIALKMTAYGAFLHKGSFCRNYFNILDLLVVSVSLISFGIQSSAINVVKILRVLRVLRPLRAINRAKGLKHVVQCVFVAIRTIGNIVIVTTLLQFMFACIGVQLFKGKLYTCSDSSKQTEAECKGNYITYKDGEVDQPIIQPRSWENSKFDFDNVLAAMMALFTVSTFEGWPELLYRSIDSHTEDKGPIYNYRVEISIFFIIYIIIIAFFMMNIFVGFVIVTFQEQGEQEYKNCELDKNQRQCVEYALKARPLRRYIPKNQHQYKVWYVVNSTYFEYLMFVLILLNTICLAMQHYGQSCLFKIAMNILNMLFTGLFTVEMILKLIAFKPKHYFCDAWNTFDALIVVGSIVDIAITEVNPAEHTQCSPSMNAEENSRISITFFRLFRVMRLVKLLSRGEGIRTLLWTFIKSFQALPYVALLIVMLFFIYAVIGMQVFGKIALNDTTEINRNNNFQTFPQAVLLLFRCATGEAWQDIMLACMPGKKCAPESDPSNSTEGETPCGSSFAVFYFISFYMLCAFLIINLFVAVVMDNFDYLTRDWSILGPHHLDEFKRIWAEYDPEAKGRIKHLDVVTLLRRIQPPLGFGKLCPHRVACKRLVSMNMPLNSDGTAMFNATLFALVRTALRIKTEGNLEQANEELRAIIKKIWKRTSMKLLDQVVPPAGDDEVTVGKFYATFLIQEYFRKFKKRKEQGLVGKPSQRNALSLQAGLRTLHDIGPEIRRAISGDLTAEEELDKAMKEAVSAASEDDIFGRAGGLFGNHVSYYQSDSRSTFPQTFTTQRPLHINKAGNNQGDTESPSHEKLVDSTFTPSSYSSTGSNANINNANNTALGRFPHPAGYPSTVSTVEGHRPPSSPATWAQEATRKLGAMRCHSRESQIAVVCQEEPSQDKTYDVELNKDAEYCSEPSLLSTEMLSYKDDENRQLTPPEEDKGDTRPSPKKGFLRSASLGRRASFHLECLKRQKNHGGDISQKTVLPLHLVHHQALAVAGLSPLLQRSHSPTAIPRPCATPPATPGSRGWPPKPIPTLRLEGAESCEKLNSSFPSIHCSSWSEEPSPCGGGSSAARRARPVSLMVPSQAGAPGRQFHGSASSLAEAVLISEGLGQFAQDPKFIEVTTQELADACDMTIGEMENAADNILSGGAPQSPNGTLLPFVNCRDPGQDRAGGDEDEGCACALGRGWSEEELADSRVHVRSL

Plasma = experiment: Terminal plasma concentration in TRPV4 knockout Balb/c mouse at 30 mg/kg, iv administered as infusion; assay type: ADME, organism-based; details: in vivo, read-out: Cp(T)
Mus musculus [4] = experiment: Toxicity in TRPV4 knockout Balb/c mouse assessed as reduction in heart rate at 30 mg/kg, iv administered as infusion; assay type: organism-based; details: in vivo
[5] = Cmax in Beagle dog at 1 mg/kg, iv administered as infusion; assay type: ADME, organism-based, Canis lupus familiaris; parameters: dose 1 mg/kg, route intravenous; details: in vivo
[6] = Clearance in Sprague-Dawley rat; assay type: ADME; details: in vivo
[7] = molecular target: Voltage-dependent T-type calcium channel subunit alpha-1H (Homo sapiens) (UniProt O95180); experiment: Inhibition of Cav3.2 (unknown origin)
Canis familiaris [8] = experiment: Toxicity in Beagle dog assessed as effect on LV function at 3 mg/kg, iv administered as infusion; assay type: organism-based, Canis lupus familiaris; details: in vivo
Canis familiaris [9] = experiment: Toxicity in Beagle dog assessed as reduction in BP at 3 mg/kg, iv administered as infusion; assay type: organism-based, Canis lupus familiaris; details: in vivo
Neuromedin-K receptor = Neuromedin-K receptor (Homo sapiens, UniProt P29371); experiment: Inhibition of NK3 receptor (unknown origin) by FLIPR assay
Chain of Neuromedin-K receptor (P29371 whole entry): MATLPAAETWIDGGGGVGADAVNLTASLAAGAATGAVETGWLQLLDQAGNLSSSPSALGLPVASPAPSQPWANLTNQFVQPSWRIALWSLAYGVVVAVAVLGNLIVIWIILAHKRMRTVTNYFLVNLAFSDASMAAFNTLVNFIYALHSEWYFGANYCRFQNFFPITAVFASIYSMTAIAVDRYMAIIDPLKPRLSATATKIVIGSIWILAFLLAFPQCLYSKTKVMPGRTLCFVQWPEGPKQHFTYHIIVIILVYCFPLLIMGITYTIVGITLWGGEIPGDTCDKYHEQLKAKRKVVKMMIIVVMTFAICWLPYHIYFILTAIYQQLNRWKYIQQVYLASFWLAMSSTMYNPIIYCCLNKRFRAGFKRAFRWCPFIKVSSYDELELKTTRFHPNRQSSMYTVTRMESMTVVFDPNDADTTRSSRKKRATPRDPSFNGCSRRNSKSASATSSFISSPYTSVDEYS

Aorta = experiment: Toxicity in mouse isolated aorta assessed as effect on contractility; assay type: tissue-based; details: in vivo
[10] = molecular target: Sodium channel protein type 5 subunit alpha (Homo sapiens, UniProt Q14524); experiment: Inhibition of Nav1.5 (unknown origin) by ionworks quattro electrophysiology assay
[11] = molecular target: T3, Voltage-dependent L-type calcium channel subunit alpha-1C; experiment: Inhibition of Cav1.2 in guinea pig ventricular myocytes assessed as decrease in current amplitude at 0.1 Hz by patch clamp method; assay type: cell-based
Canis familiaris [12] = experiment: Toxicity in Beagle dog assessed as reduction in heart rate at 3 mg/kg, iv administered as infusion; assay type: organism-based, Canis lupus familiaris; details: in vivo
Canis familiaris [13] = experiment: Toxicity in Beagle dog assessed as effect on cardiac output at 3 mg/kg, iv administered as infusion; assay type: organism-based, Canis lupus familiaris; details: in vivo
[14] = Cmax in Beagle dog at 3 mg/kg, iv administered as infusion; assay type: ADME, organism-based, Canis lupus familiaris; parameters: dose 3 mg/kg, route intravenous; details: in vivo
Rattus norvegicus = experiment: Dose normalized AUC in po dosed Sprague-Dawley rat; assay type: ADME, organism-based; details: in vivo
Canis familiaris [15] = experiment: Toxicity in Beagle dog assessed as QTc prolongation at 1 to 3 mg/kg, iv administered as infusion; assay type: organism-based, Canis lupus familiaris; details: in vivo
[16] = molecular target: Voltage-dependent L-type calcium channel subunit alpha-1C (Homo sapiens, UniProt Q13936); experiment: Inhibition of Cav1.2 (unknown origin) by patchXpress electrophysiology assay
Canis familiaris [17] = experiment: Toxicity in Beagle dog assessed as hemodynamic effect at 1 mg/kg, iv administered as infusion; assay type: organism-based, Canis lupus familiaris; details: in vivo
Substance-K receptor = Substance-K receptor (Homo sapiens, UniProt P21452); experiment: Inhibition of NK2 receptor (unknown origin) by FLIPR assay
Chain of Substance-K receptor (P21452 whole entry, the tested form may be a part): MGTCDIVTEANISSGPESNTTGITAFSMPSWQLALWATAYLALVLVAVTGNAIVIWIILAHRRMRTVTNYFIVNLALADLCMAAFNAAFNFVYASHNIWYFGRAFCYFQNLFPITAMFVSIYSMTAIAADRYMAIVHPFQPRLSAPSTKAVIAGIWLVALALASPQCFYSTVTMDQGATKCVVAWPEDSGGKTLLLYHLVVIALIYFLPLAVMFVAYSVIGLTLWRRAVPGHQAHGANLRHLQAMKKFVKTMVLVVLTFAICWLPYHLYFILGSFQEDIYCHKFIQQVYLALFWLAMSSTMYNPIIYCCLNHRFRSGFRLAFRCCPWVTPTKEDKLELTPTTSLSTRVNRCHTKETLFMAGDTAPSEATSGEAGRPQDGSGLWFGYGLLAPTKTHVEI

Canis familiaris [18] = experiment: Unbound plasma concentration in Beagle dog at 3 mg/kg, iv administered as infusion; details: in vivo
Canis familiaris [19] = experiment: Unbound plasma concentration in Beagle dog at 1 mg/kg, iv administered as infusion; details: in vivo
Mus musculus [20] = experiment: Toxicity in TRPV4 knockout Balb/c mouse assessed as reduction in BP at 30 mg/kg, iv administered as infusion; assay type: organism-based; details: in vivo
[21] = molecular target: Voltage-gated inwardly rectifying potassium channel KCNH2 (Homo sapiens, UniProt Q12809); experiment: Inhibition of human ERG by patchXpress electrophysiology assay
[22] = Toxicity in mouse isolated right atria assessed as effect on contractility; parameters: species or system Right cardiac atrium; details: in vivo
[23] = molecular target: Voltage-dependent N-type calcium channel subunit alpha-1B (Homo sapiens) (UniProt Q00975); experiment: Inhibition of Cav2.2 (unknown origin)
[24] = Cardiotoxicity in rabbit ventricular wedge; assay type: toxicity, Oryctolagus cuniculus
[25] = Oral bioavailability in Sprague-Dawley rat; assay type: ADME, organism-based; details: in vivo
[26] = molecular target: Nuclear receptor subfamily 1 group I member 2 (Homo sapiens, UniProt O75469); experiment: Activation of PXR (unknown origin); assay type: ADME
[27] = molecular target: T1, Transient receptor potential cation channel subfamily V member 4; experiment: Antagonist activity at rat TRPV4 expressed in HEK293 cells assessed as inhibition of 4alpha-PDD-induced current at holding potential of -40 mV by Whole cell patch-clamp method; assay type: cell-based
[28] = molecular target: Transient receptor potential cation channel subfamily V member 4 (Mus musculus, UniProt Q9EPK8); experiment: Antagonist activity at mouse TRPV4 expressed in HEK293 cells assessed as inhibition of 4alpha-PDD-induced current at holding potential of -40 mV by Whole cell patch-clamp method; assay type: cell-based
[29] = molecular target: T2, Transient receptor potential cation channel subfamily V member 4
Description: Antagonist activity at human TRPV4 expressed in HEK293 cells assessed as inhibition of 4alpha-PDD-induced current at holding potential of -40 mV by Whole cell patch-clamp method

[30] = Clearance in iv dosed rat; assay type: ADME, organism-based; details: in vivo
[31] = molecular target: Transient receptor potential cation channel subfamily A member 1 (Homo sapiens, UniProt O75762); experiment: Inhibition of TRPA1 (unknown origin)
[32] = Half life in po dosed rat; assay type: ADME, organism-based; details: in vivo
[33] = Oral bioavailability in rat; assay type: ADME, organism-based; details: in vivo
[34] = molecular target: Short transient receptor potential channel 3 (Homo sapiens, UniProt Q13507); experiment: Inhibition of TRPC3 (unknown origin)
[35] = molecular target: Transient receptor potential cation channel subfamily V member 1 (Homo sapiens, UniProt Q8NER1); experiment: Inhibition of TRPV1 (unknown origin)
[36] = Oral bioavailability in dog; assay type: ADME, organism-based, Canis lupus familiaris; details: in vivo
[37] = Half life in po dosed dog; assay type: ADME, organism-based, Canis lupus familiaris; details: in vivo
[38] = Clearance in iv dosed dog; assay type: ADME, organism-based, Canis lupus familiaris; details: in vivo
[39] = molecular target: Short transient receptor potential channel 6 (Homo sapiens, UniProt Q9Y210); experiment: Inhibition of TRPC6 (unknown origin)
[40] = molecular target: Transient receptor potential cation channel subfamily M member 8 (Homo sapiens, UniProt Q7Z2W7); experiment: Inhibition of TRPM8 (unknown origin)

Compound: C[C@@H](NC(=O)c1c(CN2CCC(N3CCCCC3)CC2)c(-c2ccccc2)nc2ccccc12)c1ccccc1
IC50 [1]: 630 nM
IC50 [2]: 2000 nM

Compound: O=C(NCc1ccccc1)c1c(CN2CCC(N3CCCCC3)CC2)c(-c2cccc(C(F)(F)F)c2)nc2ccccc12
IC50 [1]: 50 nM
IC50 [2]: 500 nM

Compound: CC(C)[C@H](NC(=O)c1c(CN2CCC(N3CCCCC3)CC2)c(-c2cccc(C(F)(F)F)c2)nc2ccccc12)c1ccccc1
IC50 [1]: 25 nM
IC50 [2]: 130 nM

Compound: CC(C)(NC(=O)c1c(CN2CCC(N3CCCCC3)CC2)c(-c2cccc(C(F)(F)F)c2)nc2ccccc12)c1ccccc1
IC50 [1]: 40 nM
IC50 [2]: 1000 nM

Compound: C[C@H](NC(=O)c1c(CN2CCC(N3CCCCC3)CC2)c(-c2ccccc2)nc2ccccc12)c1ccccc1
IC50 [1]: 320 nM
clearance [6]: 52 mL/min/kg
IC50 (Neuromedin-K receptor): 8 nM
IC50 [2]: 2000 nM
IC50 (Substance-K receptor): 100 nM

Compound: COc1cccc(-c2nc3ccccc3c(C(=O)N[C@@H](C)c3ccccc3)c2CN2CCC(N3CCCCC3)CC2)c1
IC50 [1]: 630 nM
IC50 [2]: 3980 nM

Compound: O=C(N[C@@H](c1ccccc1)C(F)(F)F)c1c(CN2CCC(N3CCCCC3)CC2)c(-c2cccc(C(F)(F)F)c2)nc2ccccc12
IC50 [1]: 8 nM
IC50 [2]: 100 nM

Compound: Cc1c(C(=O)Nc2cccc(C(F)(F)F)c2)cc(-c2ccccc2)n1CCCN1CCOCC1
IC50 [27]: 133 nM
IC50 [28]: 17 nM
IC50 [29]: 48 nM

Continued by falling IC50 [1], values first:

IC50 [1]: 4 nM
IC50 [2]: 50 nM
Compound: COc1ccc2c(C(=O)N[C@H](c3ccccc3)C(F)(F)F)c(CN3CCC(N4CCCCC4)CC3)c(-c3cccc(C(F)(F)F)c3)nc2c1

EC50 [26]: 1300 nM
IC50 [1]: 3.2 nM
IC50 [2]: 10 nM
Compound: CCOc1ccc2c(C(=O)N[C@H](c3ccccc3)C(F)(F)F)c(CN3CCC(N4CCCCC4)CC3)c(-c3cccc(C(F)(F)F)c3)nc2c1
IC30 [3]: 12 µM
IC30 [11]: 10 µM

IC50 [1]: 3.2 nM
IC50 [2]: 60 nM
Compound: O=C(N[C@H](c1ccccc1)C(F)(F)F)c1c(CN2CCC(N3CCCCC3)CC2)c(-c2cccc(C(F)(F)F)c2)nc2cc(Br)ccc12

IC50 [1]: 2.5 nM
IC50 [2]: 40 nM
Compound: O=C(N[C@H](c1ccccc1)C(F)(F)F)c1c(CN2CCC(N3CCCCC3)CC2)c(-c2cccc(C(F)(F)F)c2)nc2ccccc12

IC50 [1]: 2.5 nM
IC50 [2]: 50 nM
Compound: O=C(NC1(c2ccccc2)CC1)c1c(CN2CCC(N3CCCCC3)CC2)c(-c2cccc(C(F)(F)F)c2)nc2ccccc12

concentration (Plasma): 10 to 11 µM
IC50 [1]: 2.5 nM
Cmax [5]: 7 µM
clearance [6]: 25 mL/min/kg
inhibition [7]: inactive
IC50 (Neuromedin-K receptor): 2500 nM
IC50 [2]: 80 nM
Cmax [14]: 20 µM
AUC/dose (Rattus norvegicus): 0.8 µg·h/mL/mg/kg
IC50 (Substance-K receptor): 1300 nM
unbound plasma concentration (Canis familiaris [18]): 0.94 µM
unbound plasma concentration (Canis familiaris [19]): 0.3 µM
inhibition [23]: inactive
bioavailability [25]: 100%
Compound: C[C@H](NC(=O)c1c(CN2CCC(N3CCCCC3)CC2)c(-c2cccc(C(F)(F)F)c2)nc2ccccc12)c1ccccc1
IC30 [3]: 0.12 µM
Activity (Mus musculus [4]): Toxic
Activity (Canis familiaris [8]): Toxic
Activity (Canis familiaris [9]): Toxic
Activity (Aorta): Non-Toxic
IC50 [10]: 40 µM
IC30 [11]: 1.7 µM
Activity (Canis familiaris [12]): Toxic
Activity (Canis familiaris [13]): Toxic
Activity (Canis familiaris [15]): Toxic
IC50 [16]: 4.5 µM
Activity (Canis familiaris [17]): Non-Toxic
Activity (Mus musculus [20]): Toxic
IC50 [21]: 1200 nM
Activity [22]: Non-Toxic
Activity [24]: Non-Toxic

IC50 [1]: 2.5 nM
IC50 [2]: 250 nM
Compound: COc1ccc2c(C(=O)NC3(c4ccccc4)CC3)c(CN3CCC(N4CCCCC4)CC3)c(-c3cccc(C(F)(F)F)c3)nc2c1

Activity ([26]; human): Not Active
IC50 [1]: 2 nM
clearance [30]: 7.3 mL/min/kg
IC50 [31]: > 25 µM
half-life [32]: 600 min
bioavailability [33]: 31%
IC50 [34]: > 25 µM
IC50 [2]: 40 nM
IC50 [35]: > 25 µM
bioavailability [36]: 53%
half-life [37]: 1860 min
clearance [38]: 6.9 mL/min/kg
IC50 [39]: > 25 µM
IC50 [40]: > 25 µM
Compound: O=C(NC1(c2ccccc2)CC1)c1c(CN2CCC(N3CCCCC3)CC2)c(-c2cccc(C(F)(F)F)c2)nc2cc(Br)ccc12
IC30 [3]: 10.5 µM
IC30 [11]: 10.5 µM
